We go through one molecule from US20080306115A1, “Midazole-4-Carboxamide Derivatives For Use As Cb1 Modulators” (priority 2005, published 2008).

In this experiment the target is T1, CB1 receptor (Homo sapiens, UniProt P21554).
T1 construct: expressed in transfected cells
The experiment in a line: [35S]-GTPγS binding assay on membranes from cells stably transfected with the CB1 gene, antagonism of CP55940. The settings on record: half maximal inhibition of GTPγS binding, EC80 concentration of agonist CP55940, 30° C., 45 min. It counts as biochemical. The procedure:
10 μg of membranes prepared from cells stably transfected with the CB1 gene were suspended in […] of 100 mM NaCl, 5 mM MgCl2, 1 mM EDTA, 50 mM HEPES (pH 7.4), 1 mM DTT, 0.1% BSA and 100 μM GDP. To this was added an EC80 concentration of agonist (CP55940), the required concentration of test compound and 0.1 μCi [^35S]-GTPγS. The reaction was allowed to proceed at 30° C. for 45 min. Samples were then transferred on to GF/B filters using a cell harvester and washed with wash buffer (50 mM Tris (pH 7.4), 5 mM MgCl2, 50 mM NaCl). Filters were then covered with scintilant and counted for the amount of [^35S]-GTPγS retained by the filter.
Activity is measured in the absence of all ligands (minimum activity) or in the presence of an EC80 concentration of CP55940 (maximum activity). These activities are set as 0% and 100% activity respectively. At various concentrations of novel ligand, activity is calculated as a percentage of the maximum activity and plotted. The data are fitted using the equation y=A+((B−A)/1+((C/x) ÙD)) and the IC50 value determined as the concentration required to give half maximal inhibition of GTPγS binding under the conditions used.
(In general: GTPγS is a poorly hydrolysed GTP analogue; its binding reports G protein activation.)

T1 sequence (P21554 whole entry): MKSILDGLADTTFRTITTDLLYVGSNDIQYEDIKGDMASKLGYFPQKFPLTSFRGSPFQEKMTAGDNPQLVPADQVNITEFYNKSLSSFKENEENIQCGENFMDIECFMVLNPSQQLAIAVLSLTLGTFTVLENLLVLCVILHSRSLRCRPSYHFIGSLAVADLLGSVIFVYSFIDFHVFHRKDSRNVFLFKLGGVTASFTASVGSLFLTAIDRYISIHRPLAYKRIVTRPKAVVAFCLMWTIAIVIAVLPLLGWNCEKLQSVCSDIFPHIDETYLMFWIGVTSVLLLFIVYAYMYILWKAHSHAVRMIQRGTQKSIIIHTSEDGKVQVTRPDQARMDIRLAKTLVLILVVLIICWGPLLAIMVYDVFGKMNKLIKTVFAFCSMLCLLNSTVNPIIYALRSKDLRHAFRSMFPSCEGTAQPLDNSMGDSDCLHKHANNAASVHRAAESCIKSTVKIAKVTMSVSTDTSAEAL

The IC50 is the concentration that inhibits the measured activity by half. Regarding `Cc1c(C(=O)Nc2ccc(F)nc2)nc(-c2ccc(Cl)cc2Cl)n1-c1ccc(OS(=O)(=O)CCC(F)(F)F)cc1` [Example 3, 4-(2-(2,4-dichlorophenyl)-4-{[(6-fluoropyridin-3-yl)amino]carbonyl}-5-methyl-1H-imidazol-1-yl)phenyl 3,3,3-trifluoropropane-1-sulfonate], the IC50 amounted to 1.2 nM.
